Assay results as given in patent publication US11572590B2, “Methods for evaluating tumor cell spheroids using 3D microfluidic cell culture device” (Dana-Farber Cancer Institute, Inc., priority 2017, dated 2023).
Like-named read-outs stand apart in the source and are kept apart here.

Legend:
Test in all cases: SelectScreen Kinase Profiling, single point inhibition and IC50 for off-target kinases
Format in all cases: biochemical
[1] = target: off-target kinases (Homo sapiens, UniProt P00519, E255K); conditions: ABL1 E255K, ATP Km app, ZLYTE
[2] = target: off-target kinases (Homo sapiens, UniProt P07333); conditions: CSF1R (FMS), ATP Km app, ZLYTE
[3] = target: off-target kinases (Homo sapiens, UniProt P11309); conditions: PIM1, ZLYTE, ATP Km app
[4] = target: off-target kinases (Homo sapiens, UniProt P14616); conditions: INSRR (IRR), ZLYTE, ATP Km app
[5] = target: T1, off-target kinases (Homo sapiens, UniProt P36896); conditions: ACVR1B (ALK4); Cmpd1 1000 μM; ATP Km app; ZLYTE
T1 sequence (P36896 24-505): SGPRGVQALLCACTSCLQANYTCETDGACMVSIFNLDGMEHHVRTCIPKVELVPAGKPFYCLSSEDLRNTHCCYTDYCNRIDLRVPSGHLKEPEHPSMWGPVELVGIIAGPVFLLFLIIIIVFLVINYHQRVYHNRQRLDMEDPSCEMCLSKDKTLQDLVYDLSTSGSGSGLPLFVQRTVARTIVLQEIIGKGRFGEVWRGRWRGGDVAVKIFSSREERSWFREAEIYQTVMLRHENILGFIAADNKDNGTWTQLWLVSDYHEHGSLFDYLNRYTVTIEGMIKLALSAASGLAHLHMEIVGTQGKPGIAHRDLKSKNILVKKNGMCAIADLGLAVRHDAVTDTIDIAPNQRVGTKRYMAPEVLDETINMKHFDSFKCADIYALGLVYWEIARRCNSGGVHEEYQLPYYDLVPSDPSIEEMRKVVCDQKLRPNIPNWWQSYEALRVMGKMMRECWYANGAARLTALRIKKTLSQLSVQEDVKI

[6] = target: off-target kinases (Homo sapiens, UniProt Q00526); conditions: CDK3/cyclin E1, LanthaScreen Binding
[7] = target: off-target kinases (Homo sapiens, UniProt Q14680); conditions: MELK, ZLYTE, ATP Km app
[8] = target: off-target kinases (Homo sapiens, UniProt Q96SB4); conditions: SRPK1, ZLYTE, ATP Km app
[9] = target: off-target kinases (Homo sapiens, UniProt Q9H2G2); conditions: SLK, LanthaScreen Binding
Chain of off-target kinases (Homo sapiens, UniProt Q9H2G2) (Q9H2G2 whole entry): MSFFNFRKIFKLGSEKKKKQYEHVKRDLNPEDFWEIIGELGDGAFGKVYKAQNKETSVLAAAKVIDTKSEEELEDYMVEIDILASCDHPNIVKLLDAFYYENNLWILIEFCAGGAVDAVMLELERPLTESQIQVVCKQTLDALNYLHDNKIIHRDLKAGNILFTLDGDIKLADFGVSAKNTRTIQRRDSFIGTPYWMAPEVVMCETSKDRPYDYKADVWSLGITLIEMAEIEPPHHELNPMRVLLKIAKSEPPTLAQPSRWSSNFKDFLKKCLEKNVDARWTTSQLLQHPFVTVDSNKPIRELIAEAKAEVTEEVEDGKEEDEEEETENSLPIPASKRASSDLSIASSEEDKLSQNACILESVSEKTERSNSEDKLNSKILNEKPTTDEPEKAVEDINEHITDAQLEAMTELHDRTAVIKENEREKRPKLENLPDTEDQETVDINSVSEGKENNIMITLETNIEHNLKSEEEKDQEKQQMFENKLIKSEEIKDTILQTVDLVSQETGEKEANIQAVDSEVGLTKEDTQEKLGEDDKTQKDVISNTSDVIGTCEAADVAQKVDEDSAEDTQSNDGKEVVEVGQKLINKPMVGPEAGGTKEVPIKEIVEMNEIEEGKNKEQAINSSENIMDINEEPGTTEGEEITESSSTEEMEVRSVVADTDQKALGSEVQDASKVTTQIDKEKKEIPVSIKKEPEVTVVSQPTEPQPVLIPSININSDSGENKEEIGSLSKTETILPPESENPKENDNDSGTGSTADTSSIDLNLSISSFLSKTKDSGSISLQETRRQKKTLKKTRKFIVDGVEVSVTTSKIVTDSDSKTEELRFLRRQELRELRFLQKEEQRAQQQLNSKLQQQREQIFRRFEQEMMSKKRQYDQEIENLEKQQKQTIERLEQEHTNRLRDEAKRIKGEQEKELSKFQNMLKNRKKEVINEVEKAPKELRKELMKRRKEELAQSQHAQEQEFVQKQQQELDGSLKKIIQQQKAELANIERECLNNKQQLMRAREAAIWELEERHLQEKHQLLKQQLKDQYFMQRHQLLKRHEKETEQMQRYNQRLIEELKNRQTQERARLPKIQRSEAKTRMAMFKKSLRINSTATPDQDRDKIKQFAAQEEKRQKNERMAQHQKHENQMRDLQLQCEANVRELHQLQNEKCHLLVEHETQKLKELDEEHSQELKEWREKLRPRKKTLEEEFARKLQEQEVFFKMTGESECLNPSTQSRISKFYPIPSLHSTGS

Chain of off-target kinases (Homo sapiens, UniProt P14616) (P14616 27-1297): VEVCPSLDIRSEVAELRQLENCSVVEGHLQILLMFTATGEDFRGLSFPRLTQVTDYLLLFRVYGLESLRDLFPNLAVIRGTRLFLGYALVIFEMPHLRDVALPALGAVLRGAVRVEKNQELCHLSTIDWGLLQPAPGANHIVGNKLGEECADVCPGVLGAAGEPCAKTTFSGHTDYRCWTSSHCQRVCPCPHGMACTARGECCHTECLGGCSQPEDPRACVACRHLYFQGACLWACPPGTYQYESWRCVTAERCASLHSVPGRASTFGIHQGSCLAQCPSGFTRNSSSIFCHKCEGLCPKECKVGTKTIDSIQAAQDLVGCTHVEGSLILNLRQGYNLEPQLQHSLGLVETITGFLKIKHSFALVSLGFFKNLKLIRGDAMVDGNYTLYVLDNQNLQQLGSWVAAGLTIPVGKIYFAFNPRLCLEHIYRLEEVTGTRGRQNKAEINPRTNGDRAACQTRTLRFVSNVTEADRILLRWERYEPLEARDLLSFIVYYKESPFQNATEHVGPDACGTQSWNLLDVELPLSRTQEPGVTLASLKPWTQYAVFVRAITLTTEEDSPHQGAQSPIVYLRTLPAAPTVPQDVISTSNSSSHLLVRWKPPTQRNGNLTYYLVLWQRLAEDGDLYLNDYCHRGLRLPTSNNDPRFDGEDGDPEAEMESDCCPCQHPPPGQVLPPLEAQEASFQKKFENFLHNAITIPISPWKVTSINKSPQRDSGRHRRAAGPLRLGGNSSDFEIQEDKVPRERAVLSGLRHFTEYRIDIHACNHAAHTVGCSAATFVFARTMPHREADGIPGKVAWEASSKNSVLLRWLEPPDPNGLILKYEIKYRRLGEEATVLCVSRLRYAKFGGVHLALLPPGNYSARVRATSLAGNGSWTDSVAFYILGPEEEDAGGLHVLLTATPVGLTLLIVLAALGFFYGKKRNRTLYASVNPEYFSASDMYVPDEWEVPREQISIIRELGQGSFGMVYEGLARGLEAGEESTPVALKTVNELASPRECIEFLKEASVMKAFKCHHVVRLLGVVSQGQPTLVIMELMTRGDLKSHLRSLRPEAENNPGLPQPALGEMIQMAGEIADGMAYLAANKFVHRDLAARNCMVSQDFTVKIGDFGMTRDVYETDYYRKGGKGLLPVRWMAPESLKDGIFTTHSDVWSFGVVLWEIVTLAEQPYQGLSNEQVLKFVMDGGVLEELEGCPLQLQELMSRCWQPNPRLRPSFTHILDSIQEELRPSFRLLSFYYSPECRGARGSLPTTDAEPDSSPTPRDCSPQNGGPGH
Chain of off-target kinases (Homo sapiens, UniProt P00519, E255K) (P00519 whole entry E255K): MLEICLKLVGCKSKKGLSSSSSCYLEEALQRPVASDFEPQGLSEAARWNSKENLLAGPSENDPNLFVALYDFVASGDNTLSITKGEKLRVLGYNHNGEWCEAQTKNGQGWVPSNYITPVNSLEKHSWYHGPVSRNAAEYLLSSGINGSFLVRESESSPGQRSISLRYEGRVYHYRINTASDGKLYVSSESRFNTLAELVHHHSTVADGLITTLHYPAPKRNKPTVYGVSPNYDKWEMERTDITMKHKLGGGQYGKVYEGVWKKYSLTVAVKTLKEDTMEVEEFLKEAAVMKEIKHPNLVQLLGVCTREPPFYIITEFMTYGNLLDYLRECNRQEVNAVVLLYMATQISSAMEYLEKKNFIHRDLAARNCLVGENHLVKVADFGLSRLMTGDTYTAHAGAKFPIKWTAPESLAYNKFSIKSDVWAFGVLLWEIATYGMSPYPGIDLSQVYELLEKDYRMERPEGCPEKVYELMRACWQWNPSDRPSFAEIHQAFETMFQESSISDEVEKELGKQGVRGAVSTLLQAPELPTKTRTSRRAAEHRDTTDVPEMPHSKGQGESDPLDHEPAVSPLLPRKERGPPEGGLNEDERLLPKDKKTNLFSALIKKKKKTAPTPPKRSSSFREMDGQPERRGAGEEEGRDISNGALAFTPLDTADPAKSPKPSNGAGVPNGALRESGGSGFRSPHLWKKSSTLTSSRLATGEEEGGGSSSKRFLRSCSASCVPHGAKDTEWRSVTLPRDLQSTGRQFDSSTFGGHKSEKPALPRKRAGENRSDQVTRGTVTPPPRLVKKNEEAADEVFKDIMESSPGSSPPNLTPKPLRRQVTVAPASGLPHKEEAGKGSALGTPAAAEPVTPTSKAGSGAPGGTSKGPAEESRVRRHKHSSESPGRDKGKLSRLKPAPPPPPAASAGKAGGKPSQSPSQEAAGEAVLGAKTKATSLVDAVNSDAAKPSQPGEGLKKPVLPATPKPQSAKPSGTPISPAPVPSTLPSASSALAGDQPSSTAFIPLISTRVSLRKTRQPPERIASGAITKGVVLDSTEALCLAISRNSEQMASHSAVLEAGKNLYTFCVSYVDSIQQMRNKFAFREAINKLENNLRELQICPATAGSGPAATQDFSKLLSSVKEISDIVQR
Chain of off-target kinases (Homo sapiens, UniProt Q00526) (Q00526 whole entry): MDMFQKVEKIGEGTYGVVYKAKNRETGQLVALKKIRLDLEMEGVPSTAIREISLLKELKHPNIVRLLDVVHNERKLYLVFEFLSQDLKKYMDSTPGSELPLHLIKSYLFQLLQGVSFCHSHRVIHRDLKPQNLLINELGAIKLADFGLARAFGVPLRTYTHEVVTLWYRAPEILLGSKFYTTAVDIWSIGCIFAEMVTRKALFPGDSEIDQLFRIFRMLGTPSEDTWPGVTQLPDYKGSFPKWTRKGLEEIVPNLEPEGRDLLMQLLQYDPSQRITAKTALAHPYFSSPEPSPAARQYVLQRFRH
Chain of off-target kinases (Homo sapiens, UniProt Q96SB4) (Q96SB4 whole entry): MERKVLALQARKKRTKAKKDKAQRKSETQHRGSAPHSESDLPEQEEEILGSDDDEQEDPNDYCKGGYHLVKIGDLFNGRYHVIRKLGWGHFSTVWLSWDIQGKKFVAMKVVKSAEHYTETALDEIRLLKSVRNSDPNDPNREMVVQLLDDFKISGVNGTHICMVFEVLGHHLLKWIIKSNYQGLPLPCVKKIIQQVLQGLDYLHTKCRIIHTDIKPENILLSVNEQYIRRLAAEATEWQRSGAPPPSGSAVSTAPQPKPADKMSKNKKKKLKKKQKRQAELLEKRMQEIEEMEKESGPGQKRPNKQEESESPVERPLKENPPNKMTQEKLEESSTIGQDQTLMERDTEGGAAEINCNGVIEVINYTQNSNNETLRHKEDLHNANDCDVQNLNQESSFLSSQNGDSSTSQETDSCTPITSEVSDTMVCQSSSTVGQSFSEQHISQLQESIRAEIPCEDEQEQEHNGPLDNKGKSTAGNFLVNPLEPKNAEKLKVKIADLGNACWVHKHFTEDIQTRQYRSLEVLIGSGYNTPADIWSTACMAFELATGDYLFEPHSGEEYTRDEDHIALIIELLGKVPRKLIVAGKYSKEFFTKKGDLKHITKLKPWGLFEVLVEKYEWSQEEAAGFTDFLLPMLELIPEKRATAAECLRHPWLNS
Chain of off-target kinases (Homo sapiens, UniProt P11309) (P11309 whole entry): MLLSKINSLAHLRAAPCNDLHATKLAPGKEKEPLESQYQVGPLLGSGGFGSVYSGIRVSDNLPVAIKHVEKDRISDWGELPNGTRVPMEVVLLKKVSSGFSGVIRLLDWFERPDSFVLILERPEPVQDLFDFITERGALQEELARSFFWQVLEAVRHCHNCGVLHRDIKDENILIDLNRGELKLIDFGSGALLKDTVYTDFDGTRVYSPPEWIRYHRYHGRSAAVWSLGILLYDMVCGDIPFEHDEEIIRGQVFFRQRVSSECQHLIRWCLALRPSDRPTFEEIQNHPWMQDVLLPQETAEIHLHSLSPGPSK

N#Cc1cc(-c2ncnc(Nc3ccc(N4CCN(C5COC5)CC4)cc3)n2)ccc1OC1CCOCC1 [Compound 1, 5-(4-((4-(4-(oxetan-3-yl)piperazin-1-yl)phenyl)amino)-1,3,5-triazin-2-yl)-2-((tetrahydro-2H-pyran-4-yl)oxy)benzonitrile]
inhibition ([1]; read-out: % Inhibition 1): 53%
inhibition ([1]; read-out: % Inhibition 2): 50%
inhibition ([1]; read-out: % Inhibition Avg): 51%
inhibition ([2]; read-out: % Inhibition 1): 91%
inhibition ([2]; read-out: % Inhibition 2): 96%
inhibition ([2]; read-out: % Inhibition Avg): 93%
inhibition ([3]; read-out: % Inhibition 1): 11%
inhibition ([3]; read-out: % Inhibition 2): 3%
inhibition ([3]; read-out: % Inhibition Avg): 7%
inhibition ([4]; read-out: % Inhibition 1): 5%
inhibition ([4]; read-out: % Inhibition 2): 4%
inhibition ([4]; read-out: % Inhibition Avg): 4%
% Inhibition 1 [5]: −10%
% Inhibition 2 [5]: −4%
% Inhibition Avg [5]: −7%
inhibition ([6]; read-out: % Inhibition 1): 2%
inhibition ([6]; read-out: % Inhibition 2): 9%
inhibition ([6]; read-out: % Inhibition Avg): 6%
inhibition ([7]; read-out: % Inhibition 1): 25%
inhibition ([7]; read-out: % Inhibition 2): 22%
inhibition ([7]; read-out: % Inhibition Avg): 23%
inhibition ([8]; read-out: % Inhibition 1): -1%
inhibition ([8]; read-out: % Inhibition 2): -2%
inhibition ([8]; read-out: % Inhibition Avg): -2%
inhibition ([9]; read-out: % Inhibition 1): 29%
inhibition ([9]; read-out: % Inhibition 2): 32%
inhibition ([9]; read-out: % Inhibition Avg): 30%
